{"source": "ChEMBL document CHEMBL5096167", "about": "“Recent advances in development of hetero-bivalent kinase inhibitors” (Eur J Med Chem, 2021)", "key": {"[1]": {"target": "Proto-oncogene tyrosine-protein kinase Src (Homo sapiens, UniProt P12931)", "sequence (P12931 2-536 limits assumed)": "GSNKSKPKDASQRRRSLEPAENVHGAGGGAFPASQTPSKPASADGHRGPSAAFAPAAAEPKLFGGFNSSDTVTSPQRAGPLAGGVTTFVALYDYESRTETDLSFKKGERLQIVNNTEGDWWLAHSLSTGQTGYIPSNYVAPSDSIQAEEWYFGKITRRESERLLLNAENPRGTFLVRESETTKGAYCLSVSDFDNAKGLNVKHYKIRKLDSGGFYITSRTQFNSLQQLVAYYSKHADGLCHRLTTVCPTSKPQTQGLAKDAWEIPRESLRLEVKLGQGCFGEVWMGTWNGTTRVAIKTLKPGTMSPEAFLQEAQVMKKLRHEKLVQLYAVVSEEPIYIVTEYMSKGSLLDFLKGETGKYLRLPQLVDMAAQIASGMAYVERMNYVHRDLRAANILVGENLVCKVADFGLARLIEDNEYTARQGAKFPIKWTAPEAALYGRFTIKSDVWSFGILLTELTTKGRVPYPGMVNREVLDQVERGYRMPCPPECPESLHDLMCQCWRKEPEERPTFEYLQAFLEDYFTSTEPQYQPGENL", "assay": "Irreversible inhibition of wild type c-Src (unknown origin) assessed as inhibition constant by fluorimetric assay"}, "[2]": {"target": "Mitogen-activated protein kinase 7 (Mus musculus, UniProt Q9WVS8)", "sequence (Q9WVS8 whole entry)": "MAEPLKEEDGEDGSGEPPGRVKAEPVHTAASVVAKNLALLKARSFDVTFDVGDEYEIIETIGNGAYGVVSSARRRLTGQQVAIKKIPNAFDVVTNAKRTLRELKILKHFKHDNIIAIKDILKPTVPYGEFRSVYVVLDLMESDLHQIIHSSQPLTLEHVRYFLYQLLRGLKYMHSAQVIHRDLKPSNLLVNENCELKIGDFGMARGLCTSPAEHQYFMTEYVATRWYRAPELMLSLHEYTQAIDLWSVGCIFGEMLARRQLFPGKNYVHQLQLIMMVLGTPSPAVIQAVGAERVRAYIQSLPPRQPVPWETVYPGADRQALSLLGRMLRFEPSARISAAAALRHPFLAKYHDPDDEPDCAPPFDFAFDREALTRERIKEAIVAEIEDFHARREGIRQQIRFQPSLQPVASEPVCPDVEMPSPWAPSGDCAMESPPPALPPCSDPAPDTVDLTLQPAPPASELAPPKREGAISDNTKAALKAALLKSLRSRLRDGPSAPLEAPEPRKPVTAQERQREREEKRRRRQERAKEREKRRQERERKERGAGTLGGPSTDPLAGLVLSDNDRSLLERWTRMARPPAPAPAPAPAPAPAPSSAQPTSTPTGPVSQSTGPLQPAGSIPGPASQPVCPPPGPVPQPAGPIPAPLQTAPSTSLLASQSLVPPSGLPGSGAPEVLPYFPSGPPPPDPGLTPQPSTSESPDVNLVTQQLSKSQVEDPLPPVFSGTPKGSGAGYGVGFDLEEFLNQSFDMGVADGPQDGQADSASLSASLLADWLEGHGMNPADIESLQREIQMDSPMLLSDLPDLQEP", "assay": "Activation of ERK5 in MEF cells", "type": "cell-based"}, "[3]": {"target": "Proto-oncogene tyrosine-protein kinase Src (Gallus gallus, UniProt P00523)", "assay": "Binding affinity to chicken 6-His tagged c-Src expressed in Escherichia coli Bl21 (DE3) assessed as dissociation constant"}}, "data": [{"smiles": "O=C(CCS)Nc1cccc(Nc2nccc(Nc3cc(C4CC4)[nH]n3)n2)c1", "values": [{"measurement": "Ki", "setting": "[1]", "value": 20, "unit": "nM"}]}, {"smiles": "CN1CCN(c2cnc3c(C4CCN(C(=O)c5ccc(OC(F)(F)F)cc5N)CC4)ncnc3c2)CC1", "note": "[BAY-885]", "values": [{"measurement": "IC50", "setting": "[2]", "value": 120, "unit": "nM"}]}, {"smiles": "CCC(C)[C@@H](NC(=O)[C@@H](CCC(=O)O)NC(=O)[C@@H](CCC(=O)O)NC(=O)[C@@H](CCC(=O)O)NC(C)=O)C(=O)N[C@H](Cc1ccc(NC(=O)CCCCCn2cc(-c3ccc(-n4nc(-c5ccc(Cl)cc5)c5c(N)ncnc54)cc3)nn2)cc1)C(=O)NCC(=O)N[C@H](CCC(=O)O)C(=O)N[C@H](Cc1ccccc1)C(=O)N[C@H](CCC(=O)O)C(=O)N[C@H](C)C(N)=O", "note": "(stereo partly drawn)", "values": [{"measurement": "Kd", "setting": "[3]", "value": 0.28, "unit": "nM"}]}]}
